Results from patent publication US20080233097A1, “Phosphorylation Site Of Mitogen-Activated Protein Kinases, Modified Proteins And Applications” (UNIVERSIDAD AUTONOMA DE MADRID, priority 2005, published 2008).

Legend:
3T3-L1 cells [1] = conditions: prior demonstration of p38 involvement; cited from earlier work
GRK2 = target: T1, GRK2 (Bos taurus, UniProt P21146); assay: GRK2 kinase activity in vitro (casein substrate); format: biochemical; conditions: 0.5 μM
T1 construct: made in house; host or cells: Sf9 cells (baculovirus)
T1 sequence (P21146 1-689): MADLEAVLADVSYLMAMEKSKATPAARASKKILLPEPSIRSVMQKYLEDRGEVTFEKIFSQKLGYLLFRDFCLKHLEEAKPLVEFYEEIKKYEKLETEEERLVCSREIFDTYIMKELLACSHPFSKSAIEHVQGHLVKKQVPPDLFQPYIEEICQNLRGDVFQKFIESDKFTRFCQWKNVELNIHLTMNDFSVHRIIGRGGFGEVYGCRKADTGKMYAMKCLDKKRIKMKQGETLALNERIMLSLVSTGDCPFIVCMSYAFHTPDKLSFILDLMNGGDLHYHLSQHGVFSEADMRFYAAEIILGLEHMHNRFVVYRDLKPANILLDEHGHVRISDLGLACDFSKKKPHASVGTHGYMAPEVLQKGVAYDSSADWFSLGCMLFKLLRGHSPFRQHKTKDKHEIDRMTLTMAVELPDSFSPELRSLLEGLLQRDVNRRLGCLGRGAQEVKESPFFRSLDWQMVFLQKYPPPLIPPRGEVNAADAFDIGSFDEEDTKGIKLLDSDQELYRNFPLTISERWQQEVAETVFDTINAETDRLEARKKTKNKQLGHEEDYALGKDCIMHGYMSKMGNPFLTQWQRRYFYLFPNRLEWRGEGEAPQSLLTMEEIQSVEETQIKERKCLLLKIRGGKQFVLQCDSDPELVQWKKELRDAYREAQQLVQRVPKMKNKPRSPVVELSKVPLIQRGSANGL

3T3-L1 cells [2] = assay: adipocyte differentiation of 3T3-L1 (Oil Red staining, adipocyte count); format: cell-based; conditions: 10 μM; insulin-induced differentiation
Text: 3T3L1 lines stably transfected with pCDNA3-GRK2 and pCDNA3-GRK2K220R were made. GRK2 (anti-GRK2) expression controls obtained in cell lines, compared to 3T3L1 levels, are included. The cells were subjected to a standard differentiation treatment and on day 15 of the latter, the cells were fixed with formalin and stained with Oil Red, a lipophilic coloring which binds to the fats accumulated by the adipocytes. The cells with adipocytic phenotype (in red) were counted under microscope in a total of 25 fields. Representative photographs of two independent experiments are shown in duplicate. A photo of the 3T3L1 cells, free of stimulation with insulin during the differentiation process (control), is also included. The graph reflects the adipocyte count (±SEM) in these experiments.
The cell culture was carried out with 10% DMEM medium of NCS serum. However, the entire differentiation process which is described below must be performed in depleted AXC serum (ion exchange resin) by means of successive adsorptions of fetal calf serum on an anion exchange resin and on active carbon. AXC serum was provided by the kitchen service of the Instituto of Investigaciones Biomédicas (Biomedical Research Institute). The cells are grown until their confluence and are plated (5×10^5 in P-100) in DMEM-10% AXC medium, supplemented with 4 μM of biotin (Sigma). The following day, the medium is replaced with fresh medium. The cells are grown another three days, until confluence is reached again, that day is called day “0”. On day 0 of differentiation, the cells are cultured in a medium containing: 0.5 μM dexamethasone (Sigma), 0.5 mM 3-isobutyl-1-methylxanthine (IMBX, of Sigma) and 1 μM insulin (Sigma) and in which they will remain for another three days. […] From day 6 to day 15, the adipogenesis was analyzed by staining with Oil Red, a red coloring of lipophilic constitution which binds to the drops of fat accumulated by the adipocytes in their cytoplasm. […] The cells are counted in a total of 25 fields per each experimental plate.

For C[S+]([O-])c1ccc(-c2nc(-c3ccncc3)c(-c3ccc(F)cc3)[nH]2)cc1 (stereo not drawn) [SB203580], the “effect on differentiation into adipocytes” value (3T3-L1 cells [1]) is given as “blocked”, the “effect on kinase activity of GRK2” value (GRK2) is given as “does not affect the kinase activity of GRK2” and the effect on adipogenesis (3T3-L1 cells [2]) is given as “reverses the entire adipogenesis”.
